What all share (assay): relative viability (nuclei count vs DMSO), 5 days (fraction); higher = more cells survive
Compound in assay [1]: CC[C@H](C)N1C=C(C2=C(C=C(C=C21)C3=CN=C(C=C3)N4CCNCC4)C(=O)NCC5=C(C=C(NC5=O)C)C)C [GSK126] + COc1cc2c(Oc3ccc(NC(=O)C4(C(=O)Nc5ccc(F)cc5)CC4)cc3F)ccnc2cc1OCCCN1CCOCC1 [Foretinib] (partner 0.25 µM)
An outline of the steps:
(§1)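 Lung cancer cell lines were pin-tool dosed in 1536-well plates on the day after seeding, with either a lone drug or a fixed anchor-drug dose plus five library-drug doses (not always all listed) in √10 steps. Nuclei were counted on 4× images after 5 days. Relative viability is the ratio of treated-well to vehicle-well nuclei counts, with each value a median of duplicate plates.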

Compound in assay [2]: C1CC(C1)(C(=O)O)C(=O)O.[NH2-].[NH2-].[Pt+2] [Carboplatin] + COc1cccc2cc(-c3nc([C@H]4CC[C@H](C(=O)O)CC4)n4ncnc(N)c34)[nH]c12 [OSI-027] (partner 0.5 µM)
An outline of the steps: as §1

Compound in assay [3]: CC[C@H](C)N1C=C(C2=C(C=C(C=C21)C3=CN=C(C=C3)N4CCNCC4)C(=O)NCC5=C(C=C(NC5=O)C)C)C [GSK126] + CS(=O)(=O)N1CCN(Cc2cc3nc(-c4cccc5[nH]ncc45)nc(N4CCOCC4)c3s2)CC1 [Pictilisib] (partner 1 µM)
An outline of the steps:
as §1

Compound in assay [4]: NS(=O)(=O)OC[C@@H]1C[C@@H](n2ccc3c(N[C@H]4CCc5ccccc54)ncnc32)C[C@@H]1O [MLN4924] + COc1cc2c(Oc3ccc(NC(=O)C4(C(=O)Nc5ccc(F)cc5)CC4)cc3F)ccnc2cc1OCCCN1CCOCC1 [Foretinib] (partner 0.25 µM)
In a few lines:
as §1

Turning to UMC-11, the relative viability in assay [1] (first compound 0.08 µM) stood at 1.04; in assay [1] (first compound 0.253 µM) it was 1.04; in assay [1] (first compound 0.8 µM), 1.02; in assay [1] (first compound 2.53 µM) it was 1.03; in assay [1] (first compound 8 µM), 1.19; in assay [2] (first compound 0.08 µM) it was 0.462. Also, the relative viability in assay [2] (first compound 0.253 µM) is 0.432; in assay [2] (first compound 0.8 µM), 0.456; in assay [2] (first compound 2.53 µM), 0.462; in assay [2] (first compound 8 µM), 0.405; in assay [3] (first compound 0.08 µM), 0.91; in assay [3] (first compound 0.253 µM), 0.85. Besides, the relative viability in assay [3] (first compound 0.8 µM) was found to be 0.882; in assay [3] (first compound 2.53 µM), 0.829; in assay [3] (first compound 8 µM), 0.714; in assay [4] (first compound 0.04 µM), 0.57; in assay [4] (first compound 0.1265 µM), 0.307; in assay [4] (first compound 0.4 µM) it was 0.298. Also, the relative viability in assay [4] (first compound 1.265 µM) is 0.191; in assay [4] (first compound 4 µM) it was 0.173.
